Laboratory results: ChEMBL document CHEMBL4616686, “PROTAC Compounds Targeting α-Synuclein Protein for Treating Neurogenerative Disorders: Alzheimer's and Parkinson's Diseases” (ACS Med Chem Lett, 2020)

Species: Homo sapiens
Experiment: Protac activity at E3 ubiquitin ligase/alpha-syn expressed in human HEK293/TREx A53T cells assessed as alpha-synuclein degradation measured as amount of protein remaining at 1 uM by ELISA relative to control
Type: cell-based

Row | SMILES | Activity
1 | CNc1ccc(-c2nc3ccc(OCCOCCOCCOCCOCCOCCOCC(=O)N[C@H](C(=O)N4C[C@H](O)C[C@H]4C(=O)N[C@@H](C)c4ccc(-c5scnc5C)cc4)C(C)(C)C)cc3s2)cc1 | < 35%
2 | CNc1ccc(-c2nc3ccc(OCCOCCOCCOCCOCCOCC(=O)N[C@H](C(=O)N4C[C@H](O)C[C@H]4C(=O)N[C@@H](C)c4ccc(-c5scnc5C)cc4)C(C)(C)C)cc3s2)cc1 | < 35%
3 | O=C1CCC(N2C(=O)c3ccc(N4CCN(CCCO[C@H]5C[C@H](Oc6ccc7c(c6)Sc6cc([N+](=O)[O-])ccc6N7)C5)CC4)cc3C2=O)C(=O)N1 (stereo partly specified) | 35 to 70%
4 | Cc1ncsc1-c1ccc([C@H](C)NC(=O)[C@@H]2C[C@@H](O)CN2C(=O)[C@@H](NC(=O)CN2CCN(CCN3CCC(O[C@H]4C[C@H](Oc5ccc6c(c5)Sc5cc([N+](=O)[O-])ccc5N6)C4)CC3)CC2)C(C)(C)C)cc1 | < 35%
5 | CNc1ccc(-c2nc3ccc(OCCOCCOCC(=O)N[C@H](C(=O)N4C[C@H](O)C[C@H]4C(=O)N[C@@H](C)c4ccc(-c5scnc5C)cc4)C(C)(C)C)cc3s2)cc1 | < 35%
6 | Cc1ncsc1-c1ccc([C@H](C)NC(=O)[C@@H]2C[C@@H](O)CN2C(=O)[C@@H](NC(=O)COCCOCCOc2ccc(CN3C(=O)/C(=C/C=C/c4ccc([N+](=O)[O-])cc4)c4ccccc43)cc2)C(C)(C)C)cc1 | 35 to 70%
